“Also recorded” adds a separate entry of the source. Read-outs that look alike come from different tables or passages of the source. Non-standard residues stand in square brackets, D forms with d. Residues, ends and D or L forms follow the SMILES beside them. No end group written: not given here. Dap = NC[C@H](N)C(=O)O
Assays:
[1] = 25% aqueous pooled human serum (Sigma), human 1, approximately 1 year old; conditions: 37° C., up to 8 hours
[2] = 25% aqueous pooled mouse serum (Sigma); conditions: 37° C., up to 8 hours
[3] = 25% aqueous pooled human serum (Sigma), human 2, approximately 1 month old; conditions: 37° C., up to 8 hours
[4] = system: Agrobacterium tumefaciens
Method: (§1) Growth inhibition assays were performed using the peptides of Example 1 and the Gram positive microorganisms Micrococcus luteus and Bacillus megaterium, and the Gram negative microorganisms, Escherichia coli D22, Agrobacterium tumefaciens, and Salmonella typhimurium. Anti-bacterial assays were performed in sterilized 96-well plates (Nunc F96 microtiter plates) with a final volume of 100 μl as described in Bulet (1996), cited above. Briefly, 90 μl of a suspension of a midlogarithmic phase bacterial culture at an initial 600 nm UV absorbence of 0.001 in Luria-Bertani rich nutrient medium was added to 10 μl of serially diluted peptides in sterilized water. The final peptide concentrations ranged between 0.15 and 80 μM. The plates were incubated at 30° C. for 24 hours with gentle shaking, and the growth inhibition was measured by recording the increase of the UV absorbence at 600 nm on an SLT Labinstruments 400 ATC microplate reader. The experiments were conducted over a 7-month period.

Escherichia coli D22 = conditions: read-out: IC50 in μM against Escherichia coli D22; 30° C., 24 hours; for Peptide 22 original assay (a)
Method: as §1

Micrococcus luteus = system: Micrococcus luteus
Method: as §1

Bacillus megaterium = system: Bacillus megaterium
Method: as §1

Salmonella typhimurium = system: Salmonella typhimurium
Method: as §1

[5] = mouse serum, 45-minute digestion, MALDI-MS peak height
Method: (§2) Owing to the fact that the use of diluted serum increases peptide recovery as well as retards the reaction kinetics to a manageable rate, the experiments were conducted using 25% aqueous sera.
(§3) For serum stability studies, 10 μl of an aqueous peptide stock solution containing about 0.8 mg/ml peptide was added to 200 μl 25% aqueous pooled mouse or human serum (Sigma, St. Louis, Mo.), according to the process described in M. F. Powell et al, Pharmacol Res, 10: 1268–1273 (1993). The peptide-serum mixture was thermostated at 37° C. After 0 minutes, 45 minutes, 2 hours and 4 hours, three samples of each peptide were taken and precipitated by the addition of 40 μl 15% aqueous trichloroacetic acid. The samples were stored at 4° C. for 20 minutes and centrifuged. The peptides and some remaining serum proteins were recovered in the supernatant after the trichloroacetic acid precipitation. The supernatants were immediately frozen on dry-ice and 220 μl of each were analyzed on RP-HPLC. A mouse serum and two different batches of the same SIGMA catalog number of human sera (human 1, approximately 1 year old, and human 2, approximately 1 month old) were also used.
(§4) The lyophilized samples were redissolved in 0.1 aqueous TFA and submitted for matrix assisted laser desorption/ionization (MALDI-MS).
(§5) The missing residues are indicated (e.g—C2 means that the C-terminal two residues are cleaved off). […] In Table 4, the relative amounts of the degradation products are estimated based on the MALDI-MS peak heights. 0=not detected; 1=very weak (below 5000), 2=weak (5–10000), 3=medium (10–15000), 4=strong (15000-uncleaved molecular ion at 25–30000), 5=very strong (above uncleaved molecular ion).

[6] = 25% sera, data not shown
[7] = 45-minute digestion
Method: as §2, §3, §4, §5

sheep erythrocytes = test: Hemolytic activity, release of hemoglobin; conditions: for Absorbence at 405 nm: one hour, 39° C.
Method: To determine whether native and modified pyrrhocoricin peptides were toxic to mammalian cells, several peptides from Example 1 above, a positive control, and a negative control were examined for hemolytic activity. Hemolytic activity was assayed with sheep erythrocytes suspended in Alsever's solution (BioWhittaker, Walkersville, Md.), and diluted with Dulbecco's phosphate-buffered saline, pH 7.2. Thirty μL of a 1% suspension of the red blood cells was incubated with agitation at 39° C. with 30 μL of 40 to 256 μM of each of the following peptides dissolved in phosphate buffered saline for one hour and centrifuged at 1000 g for five minutes. Fifty μL of the supernatant was collected and the release of hemoglobin was detected by measuring the ultraviolet absorbences of triplicate samples of the 40 μM or 256 μM test peptides and the control peptides at 405 nm.

in vitro = conditions: mouse, 25% aqueous pooled mouse serum
Method: as §2, §3, §4, §5

[8] = In vivo toxicity control, uninfected mice; design: species or system mice of CD-1 strain; conditions: 50 mg/kg dose, intravenous
COS cells = test: Direct killing of immortalized COS cells; assay type: cell-based
From the text: In another toxicity assay, COS cell survival was studied for pyrrhocoricin and cecropin B (Bachem Biosciences, King of Prussia, Pa.) as the positive control.

[9] = read-out: IC50 in μM against Agrobacterium tumefaciens, 30° C., 24 hours, for Peptide 22 original assay (a)
[10] = read-out: IC50 in μM against Bacillus megaterium, 30° C., 24 hours, for Peptide 22 original assay (a)
[11] = read-out: IC50 in μM against Salmonella typhimurium, 30° C., 24 hours, for Peptide 22 original assay (a)
[12] = human 1 serum (approximately 1 year old)
[13] = human 2 serum (approximately 1 month old)
[14] = read-out: IC50 in μM against Micrococcus luteus, 30° C., 24 hours, for Peptide 22 original assay (a)

1-aminocyclo-hexane carboxylic acid (Chex)-Pyrrhocoricin-β-acetyl-2,3-diamino propionic amide [Dap(Ac)]
cleaved bond [1]: Asn18-Arg19, 45-minute; also recorded: Ser5-Tyr6, 45-minute | fragment found [1]: −C3, 45-minute; also recorded: −N5, C2, 45-minute | not cleaved [1]: −C1 not detected (0) after 45-minute digestion | cleaved bond [2]: Asn18-Arg19, 45-minute; also recorded: Ser5-Tyr6, 45-minute | not cleaved [2]: −C1 not detected (0) after 45-minute digestion | cleaved bond [3]: Asn18-Arg19, 45-minute; also recorded: Ser5-Tyr6, 45-minute | fragment found [3]: −N5, C2, 45-minute | not cleaved [3]: −C1 not detected (0) after 45-minute digestion

CC[C@@H](C)[C@@H](NC(=O)[C@H]1CCCN1C(=O)[C@@H](CCCNC(=N)N)NC(=O)[C@H]1CCCN1C(=O)[C@H]1CCCN1C(=O)[C@H](NC(=O)[C@H]1CCCN1C(=O)[C@@H](CCCNC(=N)N)NC(=O)[C@H]1CCCN1C(=O)[C@@H](CC(C)C)NC(=O)[C@@H](Cc1ccc(O)cc1)NC(=O)[C@@H](CO)NC(=O)CNC(=O)[C@@H](CCCCN)NC(=O)[C@@H](CC(=O)O)NC(=O)[C@H](N)C(C)C)[C@H](C)O)C(=O)N[C@H](Cc1ccc(O)cc1)C(=O)N[C@H](CC(N)=O)C(=O)N[C@H](CCCNC(=N)N)C(=O)N[C@H](CC(N)=O)C(N)=O [Peptide 13] (H-[dV][dD][dK]G[dS][dY][dL][dP][dR][dP][dT][dP][dP][dR][dP][dI][dY][dN][dR][dN]-NH2; N-terminus and C-terminus assumed)
IC50 [4, 9]: > 80 µM | IC50 (Escherichia coli D22): > 80 µM | IC50 (Micrococcus luteus; 24 h): 40 µM | IC50 (Bacillus megaterium; [10]): > 80 µM | IC50 (Salmonella typhimurium; [11]): > 80 µM

CC[C@H](C)[C@H](NC(=O)[C@@H]1CCCN1C(=O)[C@H](CCCNC(=N)N)NC(=O)[C@@H]1CCCN1C(=O)[C@@H]1CCCN1C(=O)[C@@H](NC(=O)[C@@H]1CCCN1C(=O)[C@H](CCCNC(=N)N)NC(=O)[C@@H]1CCCN1C(=O)[C@H](CC(C)C)NC(=O)[C@H](Cc1ccc(O)cc1)NC(=O)[C@H](CO)NC(=O)CNC(=O)[C@H](CCCCN)NC(=O)[C@H](CC(=O)O)NC(=O)[C@@H](NC(=O)[C@H](CCCNC(=N)N)NC(C)=O)C(C)C)[C@@H](C)O)C(=O)N[C@@H](Cc1ccc(O)cc1)C(=O)N[C@@H](CC(N)=O)C(=O)N[C@@H](CCCNC(=N)N)C(=O)N[C@@H](CNC(C)=O)C(N)=O [Peptide 22] (Ac-RVDKGSYLPRPTPPRPIYNR[Dap](Ac)-NH2)
Degradation product −C1, relative amount [5]: 0 | Degradation product −C2, relative amount [5]: 2 (2=weak (5–10000)) | Degradation product −C3, relative amount [5]: 0 | Degradation product −C6, relative amount [5]: 0 | Degradation product −N3, C2, relative amount [5]: 0 | Degradation product −N3, relative amount [5]: 0 | Degradation product −N5, C2, relative amount [5]: 0 | Degradation product −N5, relative amount [5]: 0 | IC50 [4]: 0.6 µM | IC50 ([4]; 24 h): 2.5 µM | IC50 (Micrococcus luteus): 10 µM | IC50 (Micrococcus luteus; 24 h): 10 µM | IC50 (Bacillus megaterium; Bacillus): 80 µM | IC50 (Bacillus megaterium; Bacillus, 24 h): 40 µM | IC50 (Salmonella typhimurium; murium): 2.5 µM | IC50 (Salmonella typhimurium; murium, 24 h): 2.5 µM | degradation rate compared with other peptides (in words) [6]: degrades considerably faster than either Peptide 1 or Peptide 21 | Degradation product −C1, relative amount [7, 12]: 0 | Degradation product −C2, relative amount [7, 12]: 5 | Degradation product −C3, relative amount [7, 12]: 3 (3=medium (10–15000)) | Degradation product −C6, relative amount [7, 12]: 0 | Degradation product −N3, C2, relative amount [7, 12]: 1 (1=very weak (below 5000)) | Degradation product −N3, relative amount [7, 12]: 2 (2=weak (5–10000)) | Degradation product −N5, C2, relative amount [7, 12]: 2 (2=weak (5–10000)) | Degradation product −N5, relative amount [7, 12]: 3 (3=medium (10–15000)) | Degradation product −C1, relative amount [7, 13]: 0 | Degradation product −C2, relative amount [7, 13]: 5 | Degradation product −C3, relative amount [7, 13]: 0 | Degradation product −C6, relative amount [7, 13]: 0 | Degradation product −N3, C2, relative amount [7, 13]: 0 | Degradation product −N3, relative amount [7, 13]: 2 (2=weak (5–10000)) | Degradation product −N5, C2, relative amount [7, 13]: 0 | Degradation product −N5, relative amount [7, 13]: 1 (1=very weak (below 5000))

PTPPRPIYNRN [Peptide 15]
IC50 [4, 9]: > 80 µM | IC50 (Escherichia coli D22): > 80 µM | IC50 (Micrococcus luteus; [14]): > 80 µM | IC50 (Bacillus megaterium; [10]): > 80 µM | IC50 (Salmonella typhimurium; [11]): > 80 µM

VDKGSYLPR [Peptide 14]
IC50 [4, 9]: > 80 µM | IC50 (Escherichia coli D22): > 80 µM | IC50 (Micrococcus luteus; [14]): > 80 µM | IC50 (Bacillus megaterium; [10]): > 80 µM | IC50 (Salmonella typhimurium; [11]): > 80 µM

VDKGSYLPRPTPPRPIYN [Peptide 25]
IC50 [4, 9]: > 80 µM | IC50 (Escherichia coli D22): > 80 µM | IC50 (Micrococcus luteus; [14]): > 80 µM | IC50 (Bacillus megaterium; [10]): > 80 µM | IC50 (Salmonella typhimurium; [11]): > 80 µM

VDKGSYLPRPTPPRPIYNRN
cleaved bond [1]: Arg19-Asn20, first_seen, 45 minute; also recorded: Asn18-Arg19, 45-minute; also recorded: Ser5-Tyr6, 45-minute | fragment found [1]: −C3, 45-minute; also recorded: −C6, 45-minute | cleaved bond [2]: Arg19-Asn20, first_seen, 45 minute; also recorded: Asn18-Arg19, 45-minute | cleaved bond [3]: Arg19-Asn20, first_seen, 45 minute; also recorded: Asn18-Arg19, 45-minute

VDKGSYLPRPTPPRPIYNRN [Peptide 2, reference compound]
IC50 [4, 9]: 0.3 µM | IC50 (Escherichia coli D22): 0.3 µM | IC50 (Micrococcus luteus; [14]): > 80 µM | IC50 (Bacillus megaterium; [10]): 40 µM | IC50 (Salmonella typhimurium; [11]): 2.5 µM

VDKGSYLPRPTPPRPIYNRN-NH2 [Peptide 1]
Degradation product −C1, relative amount [5]: 2 (2=weak (5–10000)) | Degradation product −C2, relative amount [5]: 2 (2=weak (5–10000)) | Degradation product −C3, relative amount [5]: 0 | Degradation product −C6, relative amount [5]: 0 | Degradation product −N3, C2, relative amount [5]: 0 | Degradation product −N3, relative amount [5]: 0 | Degradation product −N5, C2, relative amount [5]: 0 | Degradation product −N5, relative amount [5]: 0 | Absorbence at 405 nm (sheep erythrocytes; 40 μM peptide): 0.108 ± 0.015 | toxicity to sheep erythrocytes (in words) (sheep erythrocytes; 256 μM concentration): completely non-toxic | Absorbence at 405 nm (sheep erythrocytes; 256 μM peptide): 0.0135 ± 0.005 | remaining at 8 h (in vitro): 20% | IC50 [4, 9]: < 0.075 µM | IC50 (Escherichia coli D22): < 0.075 µM | IC50 (Micrococcus luteus; [14]): 10 µM | IC50 (Bacillus megaterium; [10]): 5 µM | IC50 (Salmonella typhimurium; [11]): 0.6 µM | toxicity of peptide alone (in words) [8]: Neither Peptides 1 nor 21 [SEQ ID NOS: 6 and 22, respectively] alone showed any toxicity | Cell Count after Treatment (COS cells; 5 μM peptide): 18 ± 4 | Cell Count after Treatment (COS cells; 10 μM peptide): 12 ± 4 | Cell Count after Treatment (COS cells; 50 μM peptide): 11 ± 1 | effect on cell count and rate of proliferation (in words) (COS cells; up to 50 μM/mL concentration): did not change | Degradation product −C1, relative amount [7, 12]: 3 (3=medium (10–15000)) | Degradation product −C2, relative amount [7, 12]: 4 (4=strong (15000-uncleaved molecular ion at 25–30000)) | Degradation product −C3, relative amount [7, 12]: 3 (3=medium (10–15000)) | Degradation product −C6, relative amount [7, 12]: 1 (1=very weak (below 5000)) | Degradation product −N3, C2, relative amount [7, 12]: 0 | Degradation product −N3, relative amount [7, 12]: 0 | Degradation product −N5, C2, relative amount [7, 12]: 0 | Degradation product −N5, relative amount [7, 12]: 2 (2=weak (5–10000)) | Degradation product −C1, relative amount [7, 13]: 2 (2=weak (5–10000)) | Degradation product −C2, relative amount [7, 13]: 2 (2=weak (5–10000)) | Degradation product −C3, relative amount [7, 13]: 0 | Degradation product −C6, relative amount [7, 13]: 0 | Degradation product −N3, C2, relative amount [7, 13]: 0 | Degradation product −N3, relative amount [7, 13]: 0 | Degradation product −N5, C2, relative amount [7, 13]: 0 | Degradation product −N5, relative amount [7, 13]: 0

Reference: patent US7015309B1 (The Wistar Institute of Anatomy and Biology, priority 1999, dated 2006)
